Data taken from PMC4501006, “Preliminary Characterization and In Vivo Studies of Structurally Identical ^18F- and ^125I-Labeled Benzyloxybenzenes for PET/SPECT Imaging of β-Amyloid Plaques” (Scientific Reports, 2015).

Assays:
[1] = In vivo biodistribution in normal ICR mice; conditions: i.v.
Description: Histograms of brain and intestine uptake were presented in Fig. 6 for comparison, while detailed data concerning the in vivo biodistribution in normal ICR mice were collected in Table S3 in Supplementary information. […] [^125I]7a and [^125I]12a were rapidly cleared from the normal brain, with only small amounts of radioactivity remaining at 60 min post-injection (0.55% ID/g for [^125I]7a and 0.37% ID/g for [^125I]12a). […] In addition, no significant deiodination was observed (less than 0.5% ID in the thyroid at 60 min).
As the specific activity of ^18F-labeled ligands (about 60 GBq/μmol) was slightly lower than that of corresponding no-carrier-added ^125I-labeled ligands (81 GBq/μmol), the impact of specific activity on pharmacokinetics was studied. In vivo biodistribution of radioactivity after injection of carrier-added [^125I]7a with equal specific activity to corresponding [^18F]7a (60 GBq/μmol) was conducted in normal ICR mice through the same procedure.
A structural model of an Aβ fiber (PDB ID: 2LMO) derived from solid state NMR was downloaded from the RCSB Protein Data Bank (www.rcsb.org/pdb). Geometric optimization was performed using Gaussian 09 at the B3LYP/6–31 G and 3-21G levels in the water phase. Molecular docking was performed using AutoDock4.0, and the docking results were graphed with VMD 1.9.1 software. SYBYL-X 1.1 software was used to predict the binding affinities with previously constructed 3D-QSAR models. All reagents for chemical synthesis were used as purchased without further purification. [^125I]NaI was purchased from PerkinElmer and ^18F^– was kindly provided by the Chinese PLA General Hospital. ^1H and ^13C NMR spectra were recorded on a Bruker Avance III NMR spectrometer (400 MHz for ^1H; 101 MHz for ^13C) in CDCl3 or DMSO-d6 solutions at room temperature. Mass spectra were acquired with a GCT CA127 Micronass UK instrument. X-ray crystallographic data of compound 12a were collected on a Bruker Smart APEX II diffractometer (Bruker Co., Germany) and deposited at the Cambridge Crystallographic Data Centre as supplementary publication (no. CCDC 1063679). HPLC analysis was performed on a Shimadzu SCL-20 AVP equipped with a Bioscan Flow Count 3200 NaI/PMT γ-radiation scintillation detector and a SPD-20A UV detector, λ = 254 nm. A Venusil MP C18 reverse phase column (Agela Technologies, 5 μm, 4.6 × 250 mm) was used for separations and purity determinations with a binary gradient system (acetonitrile: water = 80%: 20%) at a 1.0 mL/min flow rate. Fluorescent observation was performed on the Axio Observer Z1 inverted fluorescence microscope (Zeiss, Germany) equipped with a DAPI filter set (excitation, 405 nm). Post-mortem brain sections from an autopsy-confirmed AD subject and a control subject were acquired from the Chinese Brain Bank. Transgenic mice (APPswe/PSEN1, male) and wild-type mice (C57BL6, male) were purchased from the Institute of Laboratory Animal Science, Chinese Academy of Medical Sciences. Normal ICR mice (20–22 g, male) were used for in vivo biodistribution, dynamic PET/CT and SPECT/CT scans, and biostability experiments. All experiments on mice were performed in accordance with the guidelines approved by the animal care committee of Beijing Normal University and Xiamen University.

Aβ plaques = Aβ plaques (Homo sapiens, UniProt P05067); assay: In vitro autoradiography on AD human brain sections; format: binding
Chain of Aβ plaques (P05067 672-711 limits assumed): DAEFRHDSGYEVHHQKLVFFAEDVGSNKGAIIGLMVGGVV
From the text: Figure 5 In vitro autoradiography of [^125I]7a (a–d), [^18F]7a (e–h), [^125I]12a (i–l) and [^18F]12a (m–p).

[2] = Partition coefficient determination (log D); format: physicochemical
Description: An ideal Aβ imaging probe would combine a high binding affinity to Aβ plaques and excellent pharmacokinetics with high initial brain uptake and rapid washout from normal brain regions. Thus, the partition coefficients of these four radiolabeled ligands were determined to estimate their ability to penetrate the BBB.

[18F]CCOc1ccc(OCc2ccc(I)cc2)cc1 [[^18F]7a]
brain2 min/brain60 min ratio [1]: 1.8 | Biodistribution of radioactivity, blood ([1]; 2 min): 5.99 ± 0.16 % injected dose per gram | Biodistribution of radioactivity, bone ([1]; 2 min): 2.53 ± 0.43 % injected dose per gram | Biodistribution of radioactivity, brain ([1]; 2 min): > 5 % injected dose per gram | Biodistribution of radioactivity, heart ([1]; 2 min): 9.32 ± 0.27 % injected dose per gram | Biodistribution of radioactivity, intestine ([1]; 2 min): 6.38 ± 1.04 % injected dose per organ | Biodistribution of radioactivity, kidney ([1]; 2 min): 12.70 ± 0.69 % injected dose per gram | Biodistribution of radioactivity, liver ([1]; 2 min): 17.83 ± 1.41 % injected dose per gram | Biodistribution of radioactivity, lung ([1]; 2 min): 9.34 ± 0.45 % injected dose per gram | Biodistribution of radioactivity, muscle ([1]; 2 min): 5.03 ± 0.63 % injected dose per gram | Biodistribution of radioactivity, pancreas ([1]; 2 min): 8.18 ± 0.79 % injected dose per gram | Biodistribution of radioactivity, spleen ([1]; 2 min): 5.92 ± 1.30 % injected dose per gram | Biodistribution of radioactivity, stomach ([1]; 2 min): 1.55 ± 0.11 % injected dose per organ | Biodistribution of radioactivity, brain ([1]; 2 min, listed as [18F]7a): 6.14 ± 0.52 % injected dose per gram | Biodistribution of radioactivity, blood ([1]; 10 min): 4.29 ± 0.14 % injected dose per gram | Biodistribution of radioactivity, bone ([1]; 10 min): 1.55 ± 0.50 % injected dose per gram | Biodistribution of radioactivity, brain ([1]; 10 min): 4.78 ± 0.11 % injected dose per gram | Biodistribution of radioactivity, heart ([1]; 10 min): 4.03 ± 0.34 % injected dose per gram | Biodistribution of radioactivity, intestine ([1]; 10 min): 5.38 ± 0.33 % injected dose per organ | Biodistribution of radioactivity, kidney ([1]; 10 min): 7.69 ± 1.15 % injected dose per gram | Biodistribution of radioactivity, liver ([1]; 10 min): 6.07 ± 0.27 % injected dose per gram | Biodistribution of radioactivity, lung ([1]; 10 min): 4.63 ± 0.35 % injected dose per gram | Biodistribution of radioactivity, muscle ([1]; 10 min): 3.46 ± 0.19 % injected dose per gram | Biodistribution of radioactivity, pancreas ([1]; 10 min): 3.96 ± 0.15 % injected dose per gram | Biodistribution of radioactivity, spleen ([1]; 10 min): 3.33 ± 0.20 % injected dose per gram | Biodistribution of radioactivity, stomach ([1]; 10 min): 1.24 ± 0.13 % injected dose per organ | Biodistribution of radioactivity, blood ([1]; 30 min): 4.36 ± 0.20 % injected dose per gram | Biodistribution of radioactivity, bone ([1]; 30 min): 2.70 ± 0.48 % injected dose per gram | Biodistribution of radioactivity, brain ([1]; 30 min): 3.85 ± 0.24 % injected dose per gram | Biodistribution of radioactivity, heart ([1]; 30 min): 4.20 ± 0.52 % injected dose per gram | Biodistribution of radioactivity, intestine ([1]; 30 min): 5.95 ± 0.89 % injected dose per organ | Biodistribution of radioactivity, kidney ([1]; 30 min): 6.12 ± 0.79 % injected dose per gram | Biodistribution of radioactivity, liver ([1]; 30 min): 4.31 ± 0.32 % injected dose per gram | Biodistribution of radioactivity, lung ([1]; 30 min): 4.21 ± 0.18 % injected dose per gram | Biodistribution of radioactivity, muscle ([1]; 30 min): 3.82 ± 0.40 % injected dose per gram | Biodistribution of radioactivity, pancreas ([1]; 30 min): 3.62 ± 0.30 % injected dose per gram | Biodistribution of radioactivity, spleen ([1]; 30 min): 3.38 ± 0.23 % injected dose per gram | Biodistribution of radioactivity, stomach ([1]; 30 min): 1.82 ± 0.48 % injected dose per organ | Biodistribution of radioactivity, blood ([1]; 60 min): 4.97 ± 0.12 % injected dose per gram | Biodistribution of radioactivity, bone ([1]; 60 min): 4.16 ± 0.59 % injected dose per gram | Biodistribution of radioactivity, brain ([1]; 60 min): 3.48 % injected dose per gram | Biodistribution of radioactivity, heart ([1]; 60 min): 4.26 ± 0.13 % injected dose per gram | Biodistribution of radioactivity, intestine ([1]; 60 min): 8.13 ± 1.01 % injected dose per organ | Biodistribution of radioactivity, kidney ([1]; 60 min): 4.77 ± 0.52 % injected dose per gram | Biodistribution of radioactivity, liver ([1]; 60 min): 3.84 ± 0.21 % injected dose per gram | Biodistribution of radioactivity, lung ([1]; 60 min): 4.32 ± 0.17 % injected dose per gram | Biodistribution of radioactivity, muscle ([1]; 60 min): 4.31 ± 0.38 % injected dose per gram | Biodistribution of radioactivity, pancreas ([1]; 60 min): 2.89 ± 0.37 % injected dose per gram | Biodistribution of radioactivity, spleen ([1]; 60 min): 3.28 ± 0.29 % injected dose per gram | Biodistribution of radioactivity, stomach ([1]; 60 min): 1.58 ± 0.18 % injected dose per organ | Biodistribution of radioactivity, brain ([1]; 60 min, listed as [18F]7a): 3.48 ± 0.12 % injected dose per gram | in vitro autoradiography, plaque labeling (Aβ plaques): specifically label Aβ deposits | logD [2]: 3.88 ± 0.17
